Laboratory results: the supplement of paper PMC10307832

Experiments:
Test in all cases: relative viability (nuclei count vs DMSO), 5 days (fraction); higher = more cells survive
PAC-1 + Decitabine = compound: C=CCc1cccc(/C=N/NC(=O)CN2CCN(Cc3ccccc3)CC2)c1O [PAC-1] + Nc1ncn([C@H]2C[C@H](O)[C@@H](CO)O2)c(=O)n1 [Decitabine] (partner 2 µM)
In short: (§1)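 Cells from lung cancer lines were seeded into 1536-well plates and, one day later, dosed by pin tool. Treatments were either a single drug or a fixed dose of an anchor drug with five library-drug doses (not always all listed) in √10 steps. After 5 days, nuclei were stained in a one-step fixation (final 0.05% Triton X-100, 1% formaldehyde, 1 ug/ml Hoechst) and counted on 4× images, and relative viability is the treated-to-vehicle nuclei ratio, as the median of duplicate plates.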

BMX-IN-1 + Luminespib = compound: C=CC(=O)Nc1cc(-n2c(=O)ccc3cnc4ccc(-c5ccc(NS(C)(=O)=O)cc5)cc4c32)ccc1C [BMX-IN-1] + CCNC(=O)c1noc(-c2cc(C(C)C)c(O)cc2O)c1-c1ccc(CN2CCOCC2)cc1 [Luminespib] (partner 0.01 µM)
In short: as §1

BMX-IN-1 + Olaparib = compound: C=CC(=O)Nc1cc(-n2c(=O)ccc3cnc4ccc(-c5ccc(NS(C)(=O)=O)cc5)cc4c32)ccc1C [BMX-IN-1] + O=C(c1cc(Cc2n[nH]c(=O)c3ccccc23)ccc1F)N1CCN(C(=O)C2CC2)CC1 [Olaparib] (partner 8 µM)
In short: as §1

PAC-1 + Lapatinib = compound: C=CCc1cccc(/C=N/NC(=O)CN2CCN(Cc3ccccc3)CC2)c1O [PAC-1] + CS(=O)(=O)CCNCc1ccc(-c2ccc3ncnc(Nc4ccc(OCc5cccc(F)c5)c(Cl)c4)c3c2)o1 [Lapatinib] (partner 2 µM)
In short: as §1

Cell Line	relative viability (PAC-1 + Decitabine; first compound 0.02 µM)	relative viability (PAC-1 + Decitabine; first compound 0.06325 µM)	relative viability (PAC-1 + Decitabine; first compound 0.2 µM)	relative viability (PAC-1 + Decitabine; first compound 2 µM)	relative viability (BMX-IN-1 + Luminespib; first compound 0.02 µM)	relative viability (BMX-IN-1 + Luminespib; first compound 0.2 µM)	relative viability (BMX-IN-1 + Luminespib; first compound 0.6325 µM)	relative viability (BMX-IN-1 + Luminespib; first compound 2 µM)	relative viability (BMX-IN-1 + Olaparib; first compound 0.02 µM)	relative viability (BMX-IN-1 + Olaparib; first compound 0.2 µM)	relative viability (BMX-IN-1 + Olaparib; first compound 0.6325 µM)	relative viability (BMX-IN-1 + Olaparib; first compound 2 µM)	relative viability (PAC-1 + Lapatinib; first compound 0.02 µM)	relative viability (PAC-1 + Lapatinib; first compound 0.06325 µM)	relative viability (PAC-1 + Lapatinib; first compound 0.2 µM)	relative viability (PAC-1 + Lapatinib; first compound 2 µM)
RERF-LC-KJ	0.66	0.65	0.66	0.661	1.3	1.55	1.27	1.49	0.968	1.09	1.06	0.923	0.857	0.817	0.864	0.87
HCC-15	0.628	0.685	0.56	0.599	0.571	0.363	0.297	0.369	0.645	0.827	0.706	0.787	0.907	0.945	0.814	0.861
NCI-H1755	0.764	0.712	0.675	0.732	0.525	0.387	0.502	0.597	0.903	0.941	1.01	0.873	0.987	1.03	1.02	1.05
HOP-62	0.255	0.213	0.177	0.236	1.08	1.06	0.891	0.926	0.403	0.485	0.33	0.379	0.876	0.987	1.03	1.22
ABC-1	0.809	1.06	1.05	1.16	0.586	0.571	0.359	0.322	0.749	1.02	0.815	0.978	1.35	1.22	1.18	1.07
UMC-11	0.668	0.681	0.265	0.68	1.17	1.24	1.19	1.03	0.402	0.389	0.364	0.364	0.994	0.987	0.978	1.07
BEN	0.644	0.72	0.613	0.642	0.417	0.332	0.328	0.364	1.26	1.02	1.05	1.15	0.629	0.604	0.671	0.75
NCI-H520	0.465	0.513	0.328	0.548	0.243	0.231	0.243	0.218	0.323	0.368	0.301	0.273	0.733	0.976	0.637	0.779
SK-LU-1	0.651	0.627	0.293	0.654	0.172	0.194	0.189	0.196	0.491	0.403	0.516	0.506	0.601	0.942	0.67	0.867
NCI-H2087	0.303	0.305	0.233	0.28	0.192	0.179	0.188	0.133	0.627	0.62	0.556	0.643	1.07	1.06	0.815	0.922
COR-L 105	0.63	0.71	0.707	0.696	0.753	0.693	0.928	0.706	0.735	0.689	0.791	0.641	0.294	0.361	0.413	0.406
NCI-H1395	0.741	0.685	0.632	0.712	0.745	0.546	0.71	0.887	0.433	0.45	0.452	0.45	1.12	1	0.881	1.01
EKVX	0.216	0.315	0.378	0.319	0.945	0.835	0.85	0.857	0.99	0.993	0.971	0.828	0.203	0.18	0.208	0.176
NCI-H23	0.322	0.303	0.294	0.284	0.209	0.203	0.22	0.208	0.304	0.415	0.312	0.229	1.13	1.17	0.868	1.34
NCI-H1792	0.539	0.521	0.482	0.483	0.428	0.31	0.427	0.46	0.492	0.436	0.491	0.322	0.978	0.91	0.923	0.934
NCI-H3122	0.489	0.455	0.362	0.446	0.114	0.0826	0.103	0.0683	0.678	0.781	0.672	0.64	1.01	1.03	0.983	0.953
